Measured values as given in ChEMBL document CHEMBL5291721, “A preclinical secondary pharmacology resource illuminates target-adverse drug reaction associations of marketed drugs” (Nat Commun, 2023).

Target: T1, Adenosine receptor A3 (Homo sapiens, UniProt P0DMS8)
T1 sequence (P0DMS8 whole entry): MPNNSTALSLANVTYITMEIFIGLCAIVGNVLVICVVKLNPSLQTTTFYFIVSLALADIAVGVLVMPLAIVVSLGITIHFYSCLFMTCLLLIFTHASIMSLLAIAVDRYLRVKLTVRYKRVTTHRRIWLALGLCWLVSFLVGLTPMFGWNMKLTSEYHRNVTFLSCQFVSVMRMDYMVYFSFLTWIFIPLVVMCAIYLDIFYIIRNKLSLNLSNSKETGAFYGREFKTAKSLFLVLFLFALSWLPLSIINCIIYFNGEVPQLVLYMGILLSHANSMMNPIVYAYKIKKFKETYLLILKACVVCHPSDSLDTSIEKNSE
Note: assay procedure not described here.

SMILES | AC50
CC(=O)NCCCCCC(=O)O [ACEXAMIC ACID] | > 30 µM
CC(=O)NO [ACETOHYDROXAMIC ACID] | > 30 µM
CC(C)[C@@H]1CC[C@@H](C)C[C@H]1O [LEVOMENTHOL] | > 30 µM
C[C@H]1O[C@@H](O[C@H]2CC[C@@]3(C)[C@H](CC[C@@H]4[C@@H]3C[C@@H](O)[C@]3(C)[C@@H](C5=CC(=O)OC5)CC[C@]43O)C2)C[C@H](O)[C@@H]1O[C@H]1C[C@H](O)[C@H](O[C@H]2C[C@H](O)[C@H](O[C@@H]3O[C@H](CO)[C@@H](O)[C@H](O)[C@H]3O)[C@@H](C)O2)[C@@H](C)O1 [DESLANOSIDE] | > 30 µM
Cc1ccsc1C(=CCCN1CCC[C@@H](C(=O)O)C1)c1sccc1C [TIAGABINE] | > 30 µM
O=C(NNCS(=O)(=O)O)c1ccncc1 [METHANIAZIDE] | > 30 µM
C=N[C@@H](C(=O)N[C@@H]1C(=O)N2[C@@H]1SC(C)(C)[C@@H]2C(=O)O)c1ccccc1 [METAMPICILLIN] | > 30 µM
Cc1cc(=O)[nH]c(=S)[nH]1 [METHYLTHIOURACIL] | > 30 µM
CC[C@]12CCCN3CCc4c(n(c5ccccc45)[C@@](O)(C(=O)OC)C1)[C@@H]32 [VINCAMINE] | > 30 µM
C[N+]1(C)CCCC(OC(=O)C(O)(c2ccccc2)c2ccccc2)C1 (configuration not stated) [MEPENZOLATE] | > 30 µM
CCCCC(CC)CN1CN(CC(CC)CCCC)CC(C)(N)C1 (configuration not stated) [HEXETIDINE] | 10.8 µM
C[C@]12C=CC(=O)C=C1CC[C@H]1[C@@H]3C[C@@H](O)[C@](O)(C(=O)CO)[C@@]3(C)C[C@H](O)[C@@]12F [TRIAMCINOLONE] | > 30 µM
C[N+](C)(C)CCOC(=O)CCC(=O)OCC[N+](C)(C)C [SUXAMETHONIUM] | > 30 µM
C=CC(=O)Nc1cccc(Oc2nc(Nc3ccc(N4CCN(C)CC4)cc3)nc3ccsc23)c1 [OLMUTINIB] | 0.003 µM
COc1c2occc2c(OC)c2c(=O)cc(C)oc12 [KHELLIN] | > 30 µM
C=C(C)CNc1ccc(C(C)C(=O)O)cc1 (configuration not stated) [ALMINOPROFEN] | > 30 µM
O=C(O)P(=O)(O)O [FOSCARNET] | > 30 µM
